# Source: patent publication US11999718B2, “Pyrazole derivatives” (Aptabio Therapeutics Inc., priority 2021, dated 2024)
# Test system: HL-60 cells differentiated into neutrophil cells
# Experiment: ROS production induced by PMA in HL-60 cells differentiated into neutrophil cells
# Type: cell-based
# Settings: Homo sapiens, 0.5 h; differentiated HL-60 cells, compounds 0.5 uM (0.5 mM in the source) for 30 minutes, 200 nM PMA, L-012 luminescence
# From the text: In order to confirm the effect of the compounds of Synthetic examples on ROS production from fibroblasts and specific substrate cells, ROS production was induced by stimulation of PMA (phorbol 12-myristate 13-acetate), TGF-β1, palmitate or high concentration-glucose, or the like, in HL-60 cells differentiated into neutrophil cells by DMSO treatment, NHLF (normal human lung fibroblast, Lonza), LX-2 (human hepatic stellate cells, Sigma), ARPE19 (human retinal pigment epithelial cell, ATCC), and KEL-FIB (Keloid fibroblast, ATCC) cells, and under this condition, the inhibitory effect of ROS production of the compounds of Synthetic Examples was observed.
# HL-60 cells (human leukemia cells, ATCC) were suspended in a medium containing 1.25% DMSO (RPMI+10% FBS) and cultured under the condition of 5% CO2, 37° C. for 6 days, thereby inducing differentiation into neutrophil cells. […] Then, to each well comprising the cells and drug, 200 nM PMA was treated to induce ROS production, and such ROS production was measured by observing the luminescence level of each well using 100 μM L-012.
row,Structure (SMILES),inhibition at 0.5 µM [%]
1,"CS(=O)(=O)c1ccc(N2CCN(C3CCc4nn(-c5ccccn5)c(O)c4C3)CC2)cc1 (stereo not shown) [Compound 131, 5-(4-(4-(Methylsulfonyl)phenyl)piperazin-1-yl)-2-(pyridin-2-yl)-4,5,6,7-tetrahydro-2H-indazol-3-ol]",> 70
2,"Oc1c2c(nn1-c1ccccn1)CCC(N1CCN(Cc3ccccc3)CC1)C2 (stereo not shown) [Compound 105, 5-(4-Benzylpiperazin-1-yl)-2-(pyridin-2-yl)-4,5,6,7-tetrahydro-2H-indazol-3-ol]",> 70
3,"C=CC(=O)N1CCN(C2CCc3nn(-c4ccccn4)c(O)c3C2)CC1 (stereo not shown) [Compound 97, 1-(4-(3-Hydroxy-2-(pyridin-2-yl)-4,5,6,7-tetrahydro-2H-indazol-5-yl)piperazin-1-yl)prop-2-en-1-one]",50 to 70
4,"CN(C)C/C=C/C(=O)N1CCN(C2CCc3nn(-c4ccccn4)c(O)c3C2)CC1 (stereo not shown) [Compound 98, (E)-4-(dimethylamino)-1-(4-(3-hydroxy-2-(pyridin-2-yl)-4,5,6,7-tetrahydro-2H-indazol-5-yl)piperazin-1-yl)but-2-en-1-one]",50 to 70
5,"CN(Cc1ccccc1Cl)C1CCc2nn(-c3ccccn3)c(O)c2C1 (stereo not shown) [Compound 6, 5-[(2-Chlorobenzyl)methylamino]-2-(pyridin-2-yl)-4,5,6,7-tetrahydro-2H-indazol-3-ol]",> 70
6,"Oc1c2c(nn1-c1ccccn1)CCC(N1CCc3ccccc3C1)C2 (stereo not shown) [Compound 18, 5-(3,4-Dihydro-1H-isoquinolin-2-yl)-2-(pyridin-2-yl)-4,5,6,7-tetrahydro-2H-indazol-3-ol]",> 70
7,"CCCN(Cc1ccccc1)C1CCc2nn(-c3ccccn3)c(O)c2C1 (stereo not shown) [Compound 21, 5-(Benzylpropylamino)-2-(pyridin-2-yl)-4,5,6,7-tetrahydro-2H-indazol-3-ol]",30 to 50
8,"Oc1c2c(nn1-c1ccccn1)CCC(N1CCOCC1)C2 (stereo not shown) [Compound 15, 5-Morpholino-4-yl-2-(pyridin-2-yl)-4,5,6,7-tetrahydro-2H-indazol-3-ol]",> 70
9,"COc1ccc(N2CCN(C3CCc4nn(-c5ccccn5)c(O)c4C3)CC2)cc1 (stereo not shown) [Compound 129, 5-(4-(4-Methoxyphenyl)piperazin-1-yl)-2-(pyridin-2-yl)-4,5,6,7-tetrahydro-2H-indazol-3-ol]",> 70
10,"Oc1c2c(nn1-c1ccccn1)CCC(N(Cc1ccccc1)C1CC1)C2 (stereo not shown) [Compound 2, 5-(Benzylcyclopropylamino)-2-(pyridin-2-yl)-4,5,6,7-tetrahydro-2H-indazol-3-ol]",> 70
11,"CN(Cc1cccc(F)c1)C1CCc2nn(-c3ccccn3)c(O)c2C1 (stereo not shown) [Compound 27, 5-[(3-Fluorobenzyl)methylamino]-2-(pyridin-2-yl)-4,5,6,7-tetrahydro-2H-indazol-3-ol]",30 to 50
12,"COc1ccc(CNC2CCc3nn(-c4ccccn4)c(O)c3C2)cc1 (stereo not shown) [Compound 88, 5-((4-Methoxybenzyl)amino)-2-(pyridin-2-yl)-4,5,6,7-tetrahydro-2H-indazol-3-ol]",50 to 70
13,"CCCCN(Cc1ccccc1)C1CCc2nn(-c3ccccn3)c(O)c2C1 (stereo not shown) [Compound 22, 5-(Benzylbutylamino)-2-(pyridin-2-yl)-4,5,6,7-tetrahydro-2H-indazol-3-ol]",< 30
14,"CN(Cc1ccc(F)cc1)C1CCc2nn(-c3ccccn3)c(O)c2C1 (stereo not shown) [Compound 4, 5-[(4-Fluorobenzyl)methylamino]-2-(pyridin-2-yl)-4,5,6,7-tetrahydro-2H-indazol-3-ol]",> 70
15,"Oc1c2c(nn1-c1ccccn1)CCC(N1CCN(CCCc3ccccc3)CC1)C2 (stereo not shown) [Compound 107, 5-(4-(3-Phenylpropyl)piperazin-1-yl)-2-(pyridin-2-yl)-4,5,6,7-tetrahydro-2H-indazol-3-ol]",> 70
16,"CN1CCN(C2CCc3nn(-c4ccc(C(F)(F)F)cc4)c(O)c3C2)CC1 (stereo not shown) [Compound 95, 5-(4-Methylpiperazin-1-yl)-2-(4-(trifluoromethyl)phenyl)-4,5,6,7-tetrahydro-2H-indazol-3-ol]",50 to 70
17,"CN(Cc1ccc(C(F)(F)F)cc1)C1CCc2nn(-c3ccccn3)c(O)c2C1 (stereo not shown) [Compound 8, 5-[Methyl-(4-trifluoromethylbenzyl)amino]-2-pyridin-2-yl-4,5,6,7-tetrahydro-2H-indazol-3-ol]",< 30
18,"CN(Cc1cccc(Cl)c1)C1CCc2nn(-c3ccccn3)c(O)c2C1 (stereo not shown) [Compound 7, 5-[(3-Chlorobenzyl)methylamino]-2-(pyridin-2-yl)-4,5,6,7-tetrahydro-2H-indazol-3-ol]",> 70
19,"CCCN1CCN(C2CCc3nn(-c4ccccn4)c(O)c3C2)CC1 (stereo not shown) [Compound 100, 5-(4-Propylpiperazin-1-yl)-2-(pyridin-2-yl)-4,5,6,7-tetrahydro-2H-indazol-3-ol]",50 to 70

row,Structure (SMILES),inhibition at 0.5 µM [%]
1,"COc1ccc(CN(C)C2CCc3nn(-c4ccccn4)c(O)c3C2)cc1 (stereo not shown) [Compound 28, 5-[(4-Methoxybenzyl)methylamino]-2-(pyridin-2-yl)-4,5,6,7-tetrahydro-2H-indazol-3-ol]",50 to 70
2,"CN(Cc1cccc(C(F)(F)F)c1)C1CCc2nn(-c3ccccn3)c(O)c2C1 (stereo not shown) [Compound 10, 5-[Methyl-(3-trifluoromethylbenzyl)-amino]-2-pyridin-2-yl-4,5,6,7-tetrahydro-2H-indazol-3-ol]",30 to 50
3,"CN1CCN(C2CCc3nn(-c4nccc5sccc45)c(O)c3C2)CC1 (stereo not shown) [Compound 85, 5-(4-Methylpiperazin-1-yl)-2-(thieno[3,2-c]pyridin-4-yl)-4,5,6,7-tetrahydro-2H-indazol-3-ol]",50 to 70
4,"CN(Cc1ccc(Cl)cc1)C1CCc2nn(-c3ccccn3)c(O)c2C1 (stereo not shown) [Compound 19, 5-[(4-Chlorobenzyl)methylamino]-2-(pyridin-2-yl)-4,5,6,7-tetrahydro-2H-indazol-3-ol]",> 70
5,"CC(=O)c1ccc(N2CCN(C3CCc4nn(-c5ccccn5)c(O)c4C3)CC2)cc1 (stereo not shown) [Compound 130, 1-(4-(4-(3-Hydroxy-2-(pyridin-2-yl)-4,5,6,7-tetrahydro-2H-indazol-5-yl)piperazin-1-yl)phenyl)ethan-1-one]",> 70
6,"Oc1c2c(nn1-c1ccccn1)CCC(N1CCN(CCc3ccccc3)CC1)C2 (stereo not shown) [Compound 104, 5-(4-Penethylpiperazin-1-yl)-2-(pyridin-2-yl)-4,5,6,7-tetrahydro-2H-indazol-3-ol]",50 to 70
7,"Cc1ccccc1CN(C)C1CCc2nn(-c3ccccn3)c(O)c2C1 (stereo not shown) [Compound 29, 5-[Methyl-(2-methylbenzyl)amino]-2-(pyridin-2-yl)-4,5,6,7-tetrahydro-2H-indazol-3-ol]",30 to 50
8,"Cc1ccc(N2CCN(C3CCc4nn(-c5ccccn5)c(O)c4C3)CC2)cc1 (stereo not shown) [Compound 126, 2-(Pyridin-2-yl)-5-(4-(p-tolyl)piperazin-1-yl)-4,5,6,7-tetrahydro-2H-indazol-3-ol]",> 70
9,"CN(C)c1ccc(CN(C)C2CCc3nn(-c4ccccn4)c(O)c3C2)cc1 (stereo not shown) [Compound 70, 5-[(4-Dimethylamino)benzylmethylamino]-2-(pyridin-2-yl)-4,5,6,7-tetrahydro-2H-indazol-3-ol]",30 to 50
10,"CN1CCN(C2CCc3nn(-c4ncccn4)c(O)c3C2)CC1 (stereo not shown) [Compound 108, 5-(4-Methylpiperazin-1-yl)-2-(pyrimidin-2-yl)-4,5,6,7-tetrahydro-2H-indazol-3-ol]",> 70
11,"CCN1CCN(C2CCc3nn(-c4ccccn4)c(O)c3C2)CC1 (stereo not shown) [Compound 91, 5-(4-Ethylpiperazin-1-yl)-2-(pyridin-2-yl)-4,5,6,7-tetrahydro-2H-indazol-3-ol]",50 to 70
12,"Cc1cc(C(F)(F)F)cc(-n2nc3c(c2O)CC(N2CCN(C)CC2)CC3)n1 (stereo not shown) [Compound 84, 2-(6-Methyl-4-(trifluoromethyl)pyridin-2-yl)-5-(4-methylpiperazin-1-yl)-4,5,6,7-tetrahydro-2H-indazol-3-ol]",50 to 70
13,"Oc1c2c(nn1-c1ccccn1)CCC(Nc1ccccc1)C2 (stereo not shown) [Compound 92, 5-(Phenylamino)-2-(pyridin-2-yl)-4,5,6,7-tetrahydro-2H-indazol-3-ol]",30 to 50
14,"CN1CCN(c2cccc3nc(CN(C)C4CCc5nn(-c6ccccn6)c(O)c5C4)cn23)CC1 (stereo not shown) [Compound 37, 5-{Methyl[5-(4-methylpiperazin-1-yl)imidazo[1,2-a]pyridin-2-yl]methylamino}-2-(pyridin-2-yl)-4,5,6,7-tetrahydro-2H-indazol-3-ol]",30 to 50
15,"CN1CCN(C2CCc3nn(-c4cccc(Cl)n4)c(O)c3C2)CC1 (stereo not shown) [Compound 83, 2-(6-Chloropyridin-2-yl)-5-(4-methylpiperazin-1-yl)-4,5,6,7-tetrahydro-2H-indazol-3-ol]",> 70
16,"Oc1c2c(nn1-c1ccccn1)CCC(N1CCN(Cc3ccc4ncccc4c3)CC1)C2 (stereo not shown) [Compound 90, 2-(Pyridin-2-yl)-5-(4-(quinolin-6-ylmethyl)piperazin-1-yl)-4,5,6,7-tetrahydro-2H-indazol-3-ol]",> 70
17,"Oc1c2c(nn1-c1ccccn1)CCC(N1CCCC1)C2 (stereo not shown) [Compound 96, 2-(Pyridin-2-yl)-5-(pyrrolidin-1-yl)-4,5,6,7-tetrahydro-2H-indazol-3-ol]",50 to 70
18,"CN1CCN(C2CCc3nn(-c4ncccc4F)c(O)c3C2)CC1 (stereo not shown) [Compound 86, 2-(3-Fluoropyridin-2-yl)-5-(4-methylpiperazin-1-yl)-4,5,6,7-tetrahydro-2H-indazol-3-ol]",30 to 50
